US6552018B1, “Pyrazole derivatives” (Daiichi Pharmaceutical Co., Ltd., priority 1997, dated 2003)
Converted amounts (≈) assume the structure as drawn. Structures can show the parent of a compound that is named as a salt.

Columns and labels:
Tumor cells PC-12 = assay: Tumor cell growth inhibition (MTT), PC-12; type: cell-based; details: PC-12 cells, culturing for 3 days with compound, absorbance at 540 nm; for GI50: Rattus norvegicus, PC-12, 72 h, read-out: GI50, concentration of the compound which showed 50% inhibition on cell growth as compared with a control group, PC-12
Procedure: (§1) Tumor cells PC-12 and PC-6, which had been serially cultured in RPMI 1640 containing 10% fetal bovine serum, 2 mM L-glutamine, and 100 μg/ml of kanamycin sulfate, were inoculated to a 96-well microplate (1.0×10^3 cells-PC-12/150 μl/well; 5.0×10^3 cells-PC-6/150 μl/well). After 24-hour incuvation, 50 μl of a preparation containing each of the compounds of Examples 5 to 8 and Example 13 (hereinafter described) in a varied concentration was added to each well, followed by culturing for 3 days. A 5 mg/ml solution of 3-(4,5-dimethylthiazol-2-yl)-2,5-diphenyl-2H-tetrazolium bromide (MTT) was added in an amount of 20 μl per well. Four hours later, the culture broth was removed, 150 μl/well of dimethyl sulfoxide was added to the residue, and the absorbance was measured at 540 nm.

Tumor cells PC-6 = assay: Tumor cell growth inhibition (MTT), PC-6; type: cell-based; details: Homo sapiens, 72 h, PC-6 cells, culturing for 3 days with compound, absorbance at 540 nm, read-out: GI50, concentration of the compound which showed 50% inhibition on cell growth as compared with a control group, PC-6
Procedure: as §1

GI50 (Tumor cells PC-12) [mg/L]	GI50 (Tumor cells PC-6) [mg/L]	SMILES	further results
0.035	–	Cc1c(/C=C/CN2CCN3c4ccccc4CC3C2)cnn1-c1cc(N(C)C)nc(N)n1 (racemic) [Example 72, (+/−)-2-[3-[1-(2-Amino-6-dimethylamino-4-pyrimidinyl)-5-methyl-4-pyrazolyl]-2-trans-propen-1-yl]-1,2,3,4,10,10a-hexahydropyrazino[1,2-a]indole Hydrochloride]	–
0.0383	0.00493	COc1cccnc1-n1ncc(/C=C/CN2CCN(c3cc(Cl)cc(Cl)c3)CC2)c1C.Cl [Example 13, 3-[4-(3,5-Dichlorophenyl)-1-piperazinyl]-1-[1-(3-methoxy-2-pyridyl)-5-methyl-4-pyrazolyl]-1-trans-propene Hydrochloride]	–
0.011	–	CNc1cc(-n2ncc(/C=C/CN3CCN(c4cc(F)cc(F)c4)CC3)c2C)nc(N)n1.Cl [Example 59, 1-[1-(2-Amino-6-methylamino-4-pyrimidinyl)-5-methyl-4-pyrazolyl]-3-[4-(3,5-difluorophenyl)-1-piperazinyl]-1-trans-propene Hydrochloride]	–
0.21	0.0373	Cc1c(/C=C/CN2CCN(c3cccc(Cl)c3)CC2)cnn1-c1ncccc1Cl.Cl [Example 8, 3-[4-(3-Chlorophenyl)-1-piperazinyl]-1-[1-(3-chloro-2-pyridyl)-5-methyl-4-pyrazolyl]-1-propene Hydrochloride]	–

The next lines start with the molecule.

SMILES	GI50 (Tumor cells PC-12) [mg/L]	GI50 (Tumor cells PC-6) [mg/L]	further results
Cc1c(/C=C/CN2CCN3c4ccccc4CCC3C2)cnn1-c1cc(N(C)C)nc(N)n1 (single isomer, unassigned; isomer a) [Example 67, 3-[3-[1-(2-Amino-6-dimethylamino-4-pyrimidinyl)-5-methyl-4-pyrazolyl]-2-trans-propen-1-yl]-2,3,4,4a,5,6-hexahydro-1H-pyrazino[1,2-a]quinoline Hydrochloride (Isomer A)]	–	–	GI50, concentration of the compound which showed 50% inhibition on cell growth as compared with a control group, PC-12 (Tumor cells PC-12): 0.0662 mg/L
Cc1c(/C=C/CN2CCN3c4cc(F)ccc4OCC3C2)cnn1-c1cc(N(C)C)nc(N)n1 (racemic) [Example 71, (+/−)-3-[3-[1-(2-Amino-6-dimethylamino-4-pyrimidinyl)-5-methyl-4-pyrazolyl]-2-trans-propen-1-yl]-9-fluoro-2,3,4,4a,5,6-hexahydro-1H-pyrazino[2,1-c]-1,4-benzoxazine Hydrochloride]	0.00537	–	–
Cc1c(/C=C/CN2CCN(c3cc(F)cc(F)c3)CC2)cnn1-c1nc(N)nc(N(C)C)n1.Cl [Example 60, 1-[1-(2-Amino-4-dimethylamino-1,3,5-triazin-6-yl)-5-methyl-4-pyrazolyl]-3-[4-(3,5-difluorophenyl)-1-piperazinyl]-1-trans-propene Hydrochloride]	0.0207	–	–
Cc1c(/C=C/CN2CCN(c3cc(F)cc(F)c3)CC2)cnn1-c1cc(N)nc(N)n1.Cl [Example 58, 1-[1-(2,6-Diamino-4-pyrimidinyl)-5-methyl-4-pyrazolyl]-3-[4-(3,5-difluorophenyl)-1-piperazinyl]-1-trans-propene Hydrochloride]	0.0134	–	–
Cc1c(/C=C/CN2CCN(c3cc(Cl)cc(Cl)c3)CC2)cnn1-c1ncccc1Cl.Cl [Example 7]	0.237	0.0382	–
Cc1c(/C=C/CN2CCN(c3cc(F)cc(F)c3)CC2)cnn1-c1ncccc1Cl.Cl [Example 6, 1-[1-(3-Chloro-2-pyridyl)-5-methyl-4-pyrazolyl]-3-[4-(3,5-difluorophenyl)-1-piperazinyl]-1-trans-propene Hydrochloride]	0.0347	0.00879	–
Cc1c(/C=C/CN2CCN3c4ccccc4CCC3C2)cnn1-c1cc(N(C)C)nc(N)n1 (single isomer, unassigned; isomer b) [Example 68, 3-[3-[1-(2-Amino-6-dimethylamino-4-pyrimidinyl)-5-methyl-4-pyrazolyl]-2-trans-propen-1-yl]-2,3,4,4a,5,6-hexahydro-1H-pyrazino[1,2-a]quinoline Hydrochloride (Isomer B)]	–	–	GI50, concentration of the compound which showed 50% inhibition on cell growth as compared with a control group, PC-12 (Tumor cells PC-12): 0.00916 mg/L
Cc1c(/C=C/CN2CCN3c4cc(F)ccc4CCC3C2)cnn1-c1cc(N(C)C)nc(N)n1 (single isomer, unassigned; isomer b) [Example 70, 3-[3-(1-(2-Amino-6-dimethylamino-4-pyrimidin-yl)-5-methyl-4-pyrazolyl)-2-trans-propen-1-yl]-9-fluoro-2,3,4,4a,5,6-hexahydro-1H-pyrazino[1,2-a]quinoline (Isomer B)]	0.0101 (≈ 0.0218 µM)	–	–
Cc1c(/C=C/CN2CCN(c3cc(F)cc(Cl)c3)CC2)cnn1-c1ncccc1Cl.Cl [Example 5, 3-[4-(3-Chloro-5-fluorophenyl)-1-piperazinyl]-1-[1-(3-chloro-2-pyridyl)-5-methyl-4-pyrazolyl]-1-trans-propene Hydrochloride]	0.0913	0.0106	–
Cc1c(/C=C/CN2CCN3c4cc(F)ccc4CCC3C2)cnn1-c1cc(N(C)C)nc(N)n1.Cl (single isomer, unassigned; isomer a) [Example 69, 3-[3-[1-(2-Amino-6-dimethylamino-4-pyrimidinyl)-5-methyl-4-pyrazolyl]-2-trans-propen-1-yl]-9-fluoro-2,3,4,4a,5,6-hexahydro-1H-pyrazin[1,2-a]quinoline Hydrochloride (Isomer A)]	0.0246	–	–
Cc1c(/C=C/CN2CCN(c3cc(F)cc(F)c3)CC2)cnn1-c1ncccc1I (as salt: hydrochloride)	–	–	melting point: 212 to 216 °C (dec.)
